Test results published in US9056876B2, “Substituted 1H-pyrazolo[3′,4′,4,5]thieno[2,3-b]pyridin-3-amine analogs as positive allosteric modulators of the muscarinic acetylcholine receptor M4” (VANDERBILT UNIVERSITY, priority 2011, dated 2015).

How the values were obtained:
mAChR M4 = target: T1, mAChR M4 (UniProt P08173); assay: mAChR M4 cell-based functional assay (calcium mobilization, Fluo-4, FDSS); conditions: CHO-K1 cells; for pEC50: positive allosteric modulator activity, EC20 acetylcholine response; for EC50: positive allosteric modulator activity: concentration-dependent increase in the EC20 acetylcholine response, >10 μM estimated for low potency (no plateau)
T1 construct: hM1 and hM4 cDNAs were purchased from Missouri S&T cDNA Resource
T1 sequence (P08173 1-479): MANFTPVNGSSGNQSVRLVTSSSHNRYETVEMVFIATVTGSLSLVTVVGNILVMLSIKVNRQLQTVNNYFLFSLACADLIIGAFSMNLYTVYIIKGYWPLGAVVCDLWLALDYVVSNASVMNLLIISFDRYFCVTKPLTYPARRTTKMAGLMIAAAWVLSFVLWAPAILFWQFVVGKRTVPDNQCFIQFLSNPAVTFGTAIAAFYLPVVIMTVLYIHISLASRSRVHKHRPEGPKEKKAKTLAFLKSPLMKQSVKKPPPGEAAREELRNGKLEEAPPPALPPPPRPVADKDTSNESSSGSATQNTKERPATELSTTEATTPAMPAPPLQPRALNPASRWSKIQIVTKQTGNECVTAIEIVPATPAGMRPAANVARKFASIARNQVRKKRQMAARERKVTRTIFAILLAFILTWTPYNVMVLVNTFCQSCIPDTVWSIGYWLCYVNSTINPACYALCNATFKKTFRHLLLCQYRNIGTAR
In short: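 CHO-K1 cells stably expressing hM4 or rM4 with chimeric Gqi5, loaded with Fluo-4 AM for 50 min at 37° C. Calcium read on FDSS 6000 over 300 s: compound added at 4 s, acetylcholine EC20 at 144 s and EC80 at 230 s. Agonist, PAM (EC20 increase) and antagonist (EC80 decrease) values fitted by four-parameter logistic.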

[1] = in vivo; cited from earlier work
[2] = test system: Alzheimer's disease patients; conditions: cited from earlier work
animal models = conditions: cited from earlier work

Row | SMILES | pEC50 (mAChR M4) | EC50 (mAChR M4) | further results
1 | Cc1ccnc2sc3c(NCC4CC4)nn(C)c3c12 [Compound 160, N-(cyclopropylmethyl)-1,8-dimethyl-1H-pyrazolo[3′,4′:4,5]thieno[2,3-b]pyridin-3-amine] | <5.00 | > 10 µM | 
2 | COc1ccc(Cn2nc(N)c3sc4nc(C)c(Cl)c(C)c4c32)cc1 [Compound 161, 7-chloro-1-(4-methoxybenzyl)-6,8-dimethyl-1H-pyrazolo[3′,4′:4,5]thieno[2,3-b]pyridin-3-amine] | <5.00 | > 10 µM | 
3 | Cc1cc(C)c2c(n1)sc1c(NC3CCN(C(C)C)CC3)nn(C)c12 [Compound 162, N-(1-isopropylpiperidin-4-yl)-1,6,8-trimethyl-1H-pyrazolo[3′,4′:4,5]thieno[2,3-b]pyridin-3-amine] | <5.00 | > 10 µM | 
4 | Cc1cc(C)c2c(n1)sc1c(NCc3nccn3C)nn(C)c12 [Compound 163, 1,6,8-trimethyl-N-((1-methyl-1H-imidazol-2-yl)methyl)-1H-pyrazolo[3′,4′:4,5]thieno[2,3-b]pyridin-3-amine] | <5.00 | > 10 µM | 
5 | Cc1cc(C)c2c(n1)sc1c(NC(C)CS(C)(=O)=O)nn(C)c12 (centres unmarked) [Compound 164, 1,6,8-trimethyl-N-(1-(methylsulfonyl)propan-2-yl)-1H-pyrazolo[3′,4′:4,5]thieno[2,3-b]pyridin-3-amine] | <5.00 | > 10 µM | 
6 | COCCn1nc(N)c2sc3nc(C)cc(C)c3c21 [Compound 165, 1-(2-methoxyethyl)-6,8-dimethyl-1H-pyrazolo[3′,4′:4,5]thieno[2,3-b]pyridin-3-amine] | <5.00 | > 10 µM | 
7 | CCCn1nc(N)c2sc3nc(C)cc(C)c3c21 [Compound 166, 6,8-dimethyl-1-propyl-1H-pyrazolo[3′,4′:4,5]thieno[2,3-b]pyridin-3-amine] | <5.00 | > 10 µM | 
8 | COCCn1nc(NCc2ccco2)c2sc3nc(C)cc(C)c3c21 [Compound 167, N-(furan-2-ylmethyl)-1-(2-methoxyethyl)-6,8-dimethyl-1H-pyrazolo[3′,4′:4,5]thieno[2,3-b]pyridin-3-amine] | <5.00 | > 10 µM | 
9 | Nc1c2c(nc3ccccc13)CCCC2 [tacrine] |  |  | elevated liver transaminases, share of patients [1]: about 30%
10 | CCCCCCOc1nsnc1C1=CCCN(C)C1 [xanomeline] |  |  | psychotic behavioral symptoms (delusions, suspiciousness, vocal outbursts, hallucinations) [2]: reduce psychotic behavioral symptoms; catalepsy (animal models; in vivo): without causing catalepsy; activity in animal models (animal models; profiles similar to known antipsychotic drugs): active in animal models
